Measurements from patent publication EP0173754A1, “7-THIAPROSTAGLANDIN E 1?'S AND PROCESS FOR THEIR PREPARATION” (TEIJIN LIMITED, priority 1984, dated 1985).
In brackets after ≈: the same amount, converted by molar mass.

Tests used:
[1] = tested on: blood platelet aggregation; experiment: In vitro blood platelet aggregation inhibition (ADP-induced, rabbit PRP); format: cell-based, rabbits; details: Oryctolagus cuniculus, 10 uM ADP (final), preincubated 37°C 2 minutes, read-out: Anti-platelet aggregation effect IC50
Description: The in vitro blood platelet aggregation inhibition effect of the sample compounds to be tested was examined by using rabbits. That is, blood was collected from the ear vein of native Japanese white male domestic rabbits weighing 2.5 to 3.5 kg. The collected blood was 9 parts by volume per 1 part by volume of a 3.8% sodium citrate solution. The blood was centrifuged at 1000 r.p.m. for 10 mintues. The upper layer portion was separated as PRP (rich in platelet blood plasma). The lower layer portion was further centrifuged at 2800 r.p.m. for 10 mintues to divide it into two layers. The upper layer portion was separated as PPP (poor in platelet blood plasma). The number of the platelet was diluted with PPP to 6 to […]. […]
When the activity of the sample compounds was determined, the ethanol solution was diluted with a phosphoric acid buffer (PH 7.4). The ethanol solution diluted with the buffer was left to stand at a temperature of 0°C for 4 hours, after which the activity of the sample compounds was determined in the same manner.
The platelet aggregation inhibition was calculated by the following formula: [formula] • T : the transmittance of the system to which the phosphoric acid buffer is added • T: the transmittance of the system to which the sample compounds are added […]

[2] = tested on: ulcer formation induced by indomethacin; experiment: Antiulcerative effect: inhibition of indomethacin-induced ulcer formation in rats; format: in vivo; details: Rattus norvegicus, po; P.O; Wister male rats; indomethacin 20 mg/kg orally 30 minutes after sample; ulcer length 5 hours after indomethacin
Experimental: The inhibiting effect on ulcer formation induced by indomethacin was examined by using rats. Wister male rats (7 weeks old and body weight of 220 g) were abstained from food for 24 hours except giving water and then subjected to experiments.
The sample compounds to be tested were dissolved in a phosphoric acid buffer (pH 7.4) containing 0.9% NaCl and the solution was orally administered to the rats. 30 minutes after the administration, indomethacin was orally administered to the rats at a dose of 20 mg/kg. 5 hours after the administration of the indomethacin, the rats were kileld and the ulcer formation in the stomach was examined by determining the length of the ulcer formation portion under a stereomicroscope. From this measurement, the inhibition of ulcer formation by the sample compounds were calculated to determine the ED50 values.

[3] = tested on: Ethanol Ulcer; experiment: Effect against ethanol ulcer in rats; format: in vivo; details: Rattus norvegicus, po, 1 h; P.O; SD type male rats; 75% ethanol 1 ml/kg orally 30 minutes after sample; ulcer length one hour after ethanol; read-out: Antiulcerative effect ED50
Experimental: SD type male rats (7 weeks old and body weight of 220 g) were abstained from food for 24 hours except giving water and then subjected to experiments.
The sample compound to be tested was dissolved in a phosphoric acid buffer (pH 7.4) containing 0.9% NaCl and the solution was orally administered to the rats. 30 minutes after the administration, 75% ethanol was orally administered to the rats at a dose of 1 ml/kg. One hour after the administration of the ethanol, the rats were killed and the ulcer formation in the stomach was examined by determining the length of the ulcer formation portion under a stereomicroscope. From this measurement, the inhibition of ulcer formation by the sample compound was calculated to determine the ED50 value.

`CCCCC(O)C/C=C/[C@H]1[C@H](O)CC(=O)[C@@H]1SCCCCCC(=O)OC` (stereo partly drawn) [Compound of this invention] was tested, and the IC50 [1] was 17 µg/mL (≈ 44 µM), the ED50 [2] was 0.01 mg/kg and the ED50 [3] was 0.018 mg/kg.
